The record followed here is PMC9032693, “Biological Evaluation of New Thienopyridinium and Thienopyrimidinium Derivatives as Human Choline Kinase Inhibitors” (Pharmaceutics, 2022).

For one data set, the system named is Jurkat. Nature of the data set: Antiproliferative activity, resazurin assay, 72 h. It is filed as cell-based, human.
For a further data set, the system named is HT29. Briefly: Antiproliferative activity, resazurin assay, 72 h. Format: cell-based, human.
Data set [1] has as its system MDA-MB-231. Briefly: Antiproliferative activity, resazurin assay, 72 h. It is filed as cell-based, human. In general terms: Resazurin is reduced to fluorescent resorufin, in cell work by metabolically active cells.
Data set [2] has as its system HeLa. Briefly: Antiproliferative activity, resazurin assay, 72 h. Format: cell-based, human.
In the next data set the test system is HL-60. Nature of the data set: Antiproliferative activity, resazurin assay, 72 h. Format: cell-based, human.
The test system of data set [3] is A549. Briefly: Antiproliferative activity, resazurin assay, 72 h. It is filed as cell-based, human.
For a further data set, the system named is SEM cells. Briefly: Antiproliferative activity, resazurin assay, 72 h. Format: cell-based, human.
A further data set has as its system RS 4;11. Nature of the data set: Antiproliferative activity, resazurin assay, 72 h. Format: cell-based, human.
Data set [4] in a line: Solubility as observed in the enzyme inhibition assays. It is filed as physicochemical. On the set-up: key to solubility (footnote b): -: The compound was not soluble. Conditions: for solubility (footnote b): CK inhibition assay at 10 and 30 µM; for solubility (in words): IC50 could not be determined.
The next data set has as its system HepG2 cells. Briefly: Choline uptake assay ([methyl-14C]choline). Conditions: HepG2, 24 h. Format: cell-based, human. The method, then:
Choline uptake was assessed as previously reported. Briefly, HepG2 cells (200,000 cells/well) were incubated for 24 h at 37 °C with different concentrations of CKα1 inhibitors. Then, cells were exposed to [methyl-^14C]choline ([…], 31 Ci/mol) for 5 min at 37 °C. The reaction was stopped by two washes with ice-cold PBS containing 580 μM choline. The cells were solubilized in NaOH 0.1 N and the total amount of radiolabel taken up by the cells was measured by liquid scintillation using a Beckman 6000-TA counter (Madrid, Spain).

Data set [5] relates to MDA-MB-231. Briefly: Apoptosis by annexin-V-FITC/PI flow cytometry. It is filed as cell-based, human. Conditions: MDA-MB-231, 1 and 5 µM, 72 h. The procedure:
(§1) MDA-MB-231, A549, and HeLa cells were treated with compound Ff-35 for 72 h and then stained using a commercial kit (Annexin-V-Fluos, Roche Diagnostics, Milano, Italy) containing Annexin-V conjugated with fluorescein isothiocyanate and Propidium iodide (PI). All the procedures were executed according to manufacturer’s instructions. Apoptotic cells were then analyzed through a cytofluorimeter (Beckman Coulter Cytomics FC500).
On the technique in general: Flow cytometry measures light scatter and fluorescence of single cells or particles in a stream.

For data set [6], the system named is HeLa. Briefly: Apoptosis by annexin-V-FITC/PI flow cytometry. Conditions: 1 and 5 µM, 72 h. Format: cell-based, human. The procedure: as §1
The test system of data set [7] is A549. Nature of the data set: Apoptosis by annexin-V-FITC/PI flow cytometry. Conditions: A549, 1 and 5 µM, 72 h. It is filed as cell-based, human. The method, then: as §1
In data set [8] the test system is MDA-MB-231. Nature of the data set: Cell cycle analysis by flow cytometry. The following applies: MDA-MB-231, 1.0 µM, 48 and 72 h. It is filed as cell-based, human. The procedure: (§2) Three different cell lines (MDA-MB-231, A549, and HeLa) were used to evaluate the effect of compound Ff-35 on the cell cycle. Briefly, cells were treated with the test compound for 48 and 72 h. After this incubation period the cells were trypsinized, centrifuged, and fixed by adding cold ethanol (70% v/v). Cell cycles are then acquired through a cytofluorimeter (Beckman Coulter Cytomics FC500, Milano, Italy) and subsequently analyzed using MultiCycle software (Phoenix Flow Systems, San Diego, CA, USA).

Data set [9] relates to HeLa. Briefly: Cell cycle analysis by flow cytometry. It is filed as cell-based, human. The following applies: 1.0 µM, 48 and 72 h. The procedure:
as §2

For data set [10], the system named is A549. Nature of the data set: Cell cycle analysis by flow cytometry. Conditions: A549, 1.0 µM, 48 and 72 h. It is filed as cell-based, human. The method, then: as §2
The target in a further data set is T1, CKα1 (Homo sapiens, UniProt P35790).
T1 construct: an N-terminally His-tagged truncated form of CKα1 (Δ75–457) was cloned into a pET-28a vector; His tag (N); made in house; host or cells: E. coli BL21 (DE3) Star
Briefly: Choline kinase assay ([methyl-14C]choline into PCho, purified enzyme). It is filed as biochemical. The following applies: for % Inhibition at 10 µM: purified CKα1, inhibitor 10 µM; for % Inhibition at 10 µM / % Inhibition at 30 µM: end-point assay; for % Inhibition at 30 µM: purified CKα1, inhibitor 30 µM.

T1 sequence (P35790 75-457): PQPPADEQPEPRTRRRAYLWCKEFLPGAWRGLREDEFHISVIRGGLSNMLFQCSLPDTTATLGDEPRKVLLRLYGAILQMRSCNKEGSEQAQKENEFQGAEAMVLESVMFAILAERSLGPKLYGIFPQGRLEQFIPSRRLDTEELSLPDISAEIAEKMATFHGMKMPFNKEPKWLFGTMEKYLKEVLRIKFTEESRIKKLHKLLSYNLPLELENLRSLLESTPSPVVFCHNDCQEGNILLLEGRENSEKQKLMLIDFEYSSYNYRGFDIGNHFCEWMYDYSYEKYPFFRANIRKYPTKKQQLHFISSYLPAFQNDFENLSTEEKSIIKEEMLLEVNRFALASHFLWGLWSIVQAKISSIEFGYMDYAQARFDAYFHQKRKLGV

As to `[Br-].[Br-].c1cc2c(s1)c(N1CCCCCC1)nc[n+]2Cc1ccc(CCc2ccc(C[n+]3cnc(N4CCCCCC4)c4sccc43)cc2)cc1` [Fa-23], the 50% growth inhibitory concentration (GI50) turned out to be 6150 ± 600 nM with Jurkat; 1560 ± 200 nM in the data set with HT29; 1130 ± 200 nM with MDA-MB-231 [1]; 1170 ± 100 nM in the data set with HeLa [2]; 510 ± 50 nM in the data set with HL-60; 600 ± 60 nM in the data set on A549 [3]. Also, the 50% growth inhibitory concentration (GI50) stood at 2170 ± 20 nM in the data set on SEM cells and 2080 ± 30 nM in the data set on RS 4;11. In data set [4], the “solubility (footnote b)” value is given as “- ^b”. The “solubility (in words)” value in [4] was “insolubility”.
Turning to `[Br-].[Br-].c1cc2c(s1)c(N1CCCCC1)nc[n+]2Cc1ccc(CCc2ccc(C[n+]3cnc(N4CCCCC4)c4sccc43)cc2)cc1` [Fa-25], the GI50 with Jurkat amounted to 5480 ± 500 nM; in the data set on HT29 it was 1470 ± 60 nM; with MDA-MB-231 [1], 330 ± 20 nM; in the data set with HeLa [2] it was 620 ± 20 nM; in the data set with HL-60, 140 ± 10 nM; in the data set on A549 [3] it was 280 ± 20 nM. For the same molecule, the GI50 in the data set on SEM cells was 2530 ± 30 nM; in the data set on RS 4;11, 1840 ± 100 nM. In addition, the “solubility (footnote b)” value in [4] is recorded as “- ^b”. In addition, the “solubility (in words)” value in data set [4] is on record as “insolubility”.
Regarding `[Br-].[Br-].c1cc2c(N3CCCCCC3)nc[n+](Cc3ccc(CCCCc4ccc(C[n+]5cnc(N6CCCCCC6)c6ccsc65)cc4)cc3)c2s1` [Ff-35], the “% Inhibition Choline Uptake at 0.1 μM” value with HepG2 cells (0.1 μM) came out at 35.64 ± 0.7%. Moreover, the “% Inhibition Choline Uptake at 0.5 μM” value in the data set on HepG2 cells amounted to 84.99 ± 1.3%. In the data set with HepG2 cells, the “% Inhibition Choline Uptake at 2 μM” value is reported as 96.62 ± 0.316%. The apoptotic cells result with MDA-MB-231 [5], in the data set with HeLa [6] and in the data set on A549 [7] was “significant increase in apoptotic cells in a concentration-dependent manner” in each case. Moreover, the “effect on cell cycle” value in the data set on MDA-MB-231 [8], with HeLa [9] and with A549 [10] was “notable increase in the G1 phase accompanied by a reduction in the S phase” in each case. The “% Inhibition at 10 µM” value at CKα1 was found to be 90.55%. For the same molecule, at CKα1, the “% Inhibition at 30 µM” value worked out at 97.80%.
For `[Br-].[Br-].c1cc2c(N3CCCCCC3)nc[n+](Cc3ccc(OCCOc4ccc(C[n+]5cnc(N6CCCCCC6)c6ccsc65)cc4)cc3)c2s1` [Ff-36], the “% Inhibition Choline Uptake at 0.5 μM” value in the data set with HepG2 cells came out at 71.78 ± 0.1%. Moreover, the “% Inhibition Choline Uptake at 2 μM” value in the data set with HepG2 cells was 95.32 ± 0.29%. Moreover, the GI50 was 6200 ± 900 nM with Jurkat; above 10000 nM in the data set on HT29; 2260 ± 300 nM in the data set on MDA-MB-231 [1]; 3020 ± 400 nM in the data set with HeLa [2]; 440 ± 20 nM in the data set on HL-60; 1430 ± 100 nM in the data set on A549 [3]. The concentration for 50% growth inhibition (GI50) in the data set with SEM cells was 2540 ± 200 nM; in the data set with RS 4;11, 2260 ± 300 nM. The same molecule gave an IC50 at CKα1 (concentration required to inhibit CKα1 enzyme by 50%) of 350 ± 50 nM. Besides, the “% Inhibition at 10 µM” value at CKα1 was found to be 84.47%. Further, the “% Inhibition at 30 µM” value on CKα1 is 96.07%.
Consider `[Br-].[Br-].c1cc2c(N3CCCCCC3)nc[n+](Cc3ccc(-c4ccc(C[n+]5cnc(N6CCCCCC6)c6ccsc65)cc4)cc3)c2s1` [Fg-18], for which the concentration for 50% growth inhibition (GI50) in the data set with Jurkat is 7040 ± 800 nM; in the data set with HT29 it was 2320 ± 20 nM; in the data set on MDA-MB-231 [1], 610 ± 30 nM; with HeLa [2] it was 1810 ± 20 nM; in the data set on HL-60, 790 ± 20 nM; in the data set with A549 [3], 210 ± 10 nM. Besides, the figures for the 50% growth inhibitory concentration (GI50) in the data set on SEM cells and in the data set on RS 4;11 were above 10000 nM and 2650 ± 40 nM, respectively. The “solubility (footnote b)” value in data set [4] is on record as “- ^b”.
As for `[Br-].[Br-].c1cc2c(N3CCCCCC3)nc[n+](Cc3ccc(CCc4ccc(C[n+]5cnc(N6CCCCCC6)c6ccsc65)cc4)cc3)c2s1` [Fg-19], the GI50 in the data set on Jurkat was determined as 4720 ± 600 nM; in the data set on HT29, 1420 ± 100 nM; in the data set on MDA-MB-231 [1], 500 ± 20 nM; in the data set on HeLa [2], 780 ± 20 nM; with HL-60 it was 150 ± 10 nM; with A549 [3], 310 ± 40 nM. Moreover, the GI50 in the data set with SEM cells came out at 2590 ± 30 nM; in the data set on RS 4;11, 1510 ± 200 nM. Moreover, the “solubility (footnote b)” value in [4] is recorded as “- ^b”. Also, the “solubility (in words)” value in data set [4] is listed as “insolubility”.

The term GI50 denotes the concentration at which growth is held to half of that of the control. By % Inhibition is commonly meant how much of the control response was suppressed. For orientation: IC50 means the concentration that gives 50% inhibition.
